Results: the supplement of paper PMC10307832

Legend:
Test in all cases: relative viability (nuclei count vs DMSO), 5 days (fraction); higher = more cells survive
NVP-TAE684 + Decitabine = compound: COc1cc(N2CCC(N3CCN(C)CC3)CC2)ccc1Nc1ncc(Cl)c(Nc2ccccc2S(=O)(=O)C(C)C)n1 [NVP-TAE684] + Nc1ncn([C@H]2C[C@H](O)[C@@H](CO)O2)c(=O)n1 [Decitabine] (partner 2 µM)
Summary of the method: (§1)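 Lung cancer cell lines were seeded in 1536-well plates and dosed by pin tool the next day, with either a single drug or a fixed anchor-drug dose combined with five library-drug doses (not always all listed) spaced in √10 steps. Five days later, one step fixed the cells and stained their nuclei (final 0.05% Triton X-100, 1% formaldehyde, 1 ug/ml Hoechst), and nuclei were counted on 4× images. Relative viability is the nuclei count in treated wells divided by the count in vehicle wells, and each value is the median of duplicate plates.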

Vandetanib + Foretinib = compound: COc1cc2/c(=N/c3ccc(Br)cc3F)nc[nH]c2cc1OCC1CCN(C)CC1 [Vandetanib] + COc1cc2c(Oc3ccc(NC(=O)C4(C(=O)Nc5ccc(F)cc5)CC4)cc3F)ccnc2cc1OCCCN1CCOCC1 [Foretinib] (partner 0.25 µM)
Summary of the method: as §1

[1] = compound: C1=CC=C2C(=C1)N=C(S2)C(C#N)C3=NC(=NC=C3)NCCC4=CN=CC=C4 + COc1cccc2cc(-c3nc([C@H]4CC[C@H](C(=O)O)CC4)n4ncnc(N)c34)[nH]c12 [OSI-027] (partner 0.5 µM)
Summary of the method: as §1

Vandetanib + Pemetrexed = compound: COc1cc2/c(=N/c3ccc(Br)cc3F)nc[nH]c2cc1OCC1CCN(C)CC1 [Vandetanib] + Nc1nc2[nH]cc(CCc3ccc(C(=O)N[C@@H](CCC(=O)O)C(=O)O)cc3)c2c(=O)[nH]1 [Pemetrexed] (partner 0.2 µM)
Summary of the method: as §1

NCI-H2405
relative viability (NVP-TAE684 + Decitabine; first compound 0.2 µM): 0.684 | relative viability (NVP-TAE684 + Decitabine; first compound 0.6325 µM): 0.683 | relative viability (NVP-TAE684 + Decitabine; first compound 2 µM): 0.397 | relative viability (Vandetanib + Foretinib; first compound 0.02 µM): 1.01 | relative viability (Vandetanib + Foretinib; first compound 0.06325 µM): 0.81 | relative viability (Vandetanib + Foretinib; first compound 0.2 µM): 1.08 | relative viability (Vandetanib + Foretinib; first compound 0.6325 µM): 1.07 | relative viability (Vandetanib + Foretinib; first compound 2 µM): 0.99 | relative viability ([1]; first compound 0.005 µM): 0.666 | relative viability ([1]; first compound 0.01581 µM): 0.673 | relative viability ([1]; first compound 0.05 µM): 0.614 | relative viability ([1]; first compound 0.1581 µM): 0.695 | relative viability ([1]; first compound 0.5 µM): 0.645 | relative viability (Vandetanib + Pemetrexed; first compound 0.02 µM): 0.987 | relative viability (Vandetanib + Pemetrexed; first compound 0.06325 µM): 0.982 | relative viability (Vandetanib + Pemetrexed; first compound 0.2 µM): 1.01 | relative viability (Vandetanib + Pemetrexed; first compound 0.6325 µM): 1.08 | relative viability (Vandetanib + Pemetrexed; first compound 2 µM): 0.836

NCI-H3122
relative viability (NVP-TAE684 + Decitabine; first compound 0.2 µM): 0.152 | relative viability (NVP-TAE684 + Decitabine; first compound 0.6325 µM): 0.109 | relative viability (NVP-TAE684 + Decitabine; first compound 2 µM): 0.103 | relative viability (Vandetanib + Foretinib; first compound 0.02 µM): 0.984 | relative viability (Vandetanib + Foretinib; first compound 0.06325 µM): 0.972 | relative viability (Vandetanib + Foretinib; first compound 0.2 µM): 0.888 | relative viability (Vandetanib + Foretinib; first compound 0.6325 µM): 0.944 | relative viability (Vandetanib + Foretinib; first compound 2 µM): 0.94 | relative viability ([1]; first compound 0.005 µM): 0.671 | relative viability ([1]; first compound 0.01581 µM): 0.923 | relative viability ([1]; first compound 0.05 µM): 0.895 | relative viability ([1]; first compound 0.1581 µM): 1.34 | relative viability ([1]; first compound 0.5 µM): 0.819 | relative viability (Vandetanib + Pemetrexed; first compound 0.02 µM): 0.192 | relative viability (Vandetanib + Pemetrexed; first compound 0.06325 µM): 0.196 | relative viability (Vandetanib + Pemetrexed; first compound 0.2 µM): 0.201 | relative viability (Vandetanib + Pemetrexed; first compound 0.6325 µM): 0.202 | relative viability (Vandetanib + Pemetrexed; first compound 2 µM): 0.208

PC-3 [JPC-3]
relative viability (NVP-TAE684 + Decitabine; first compound 0.2 µM): 0.846 | relative viability (NVP-TAE684 + Decitabine; first compound 0.6325 µM): 0.73 | relative viability (NVP-TAE684 + Decitabine; first compound 2 µM): 0.75 | relative viability (Vandetanib + Foretinib; first compound 0.02 µM): 0.984 | relative viability (Vandetanib + Foretinib; first compound 0.06325 µM): 0.904 | relative viability (Vandetanib + Foretinib; first compound 0.2 µM): 0.936 | relative viability (Vandetanib + Foretinib; first compound 0.6325 µM): 0.894 | relative viability (Vandetanib + Foretinib; first compound 2 µM): 0.468 | relative viability ([1]; first compound 0.005 µM): 0.717 | relative viability ([1]; first compound 0.01581 µM): 0.877 | relative viability ([1]; first compound 0.05 µM): 0.771 | relative viability ([1]; first compound 0.1581 µM): 0.888 | relative viability ([1]; first compound 0.5 µM): 0.483 | relative viability (Vandetanib + Pemetrexed; first compound 0.02 µM): 1.21 | relative viability (Vandetanib + Pemetrexed; first compound 0.06325 µM): 0.937 | relative viability (Vandetanib + Pemetrexed; first compound 0.2 µM): 0.824 | relative viability (Vandetanib + Pemetrexed; first compound 0.6325 µM): 0.65 | relative viability (Vandetanib + Pemetrexed; first compound 2 µM): 0.374

PC-14
relative viability (NVP-TAE684 + Decitabine; first compound 0.2 µM): 0.217 | relative viability (NVP-TAE684 + Decitabine; first compound 0.6325 µM): 0.191 | relative viability (NVP-TAE684 + Decitabine; first compound 2 µM): 0.0633 | relative viability (Vandetanib + Foretinib; first compound 0.02 µM): 0.955 | relative viability (Vandetanib + Foretinib; first compound 0.06325 µM): 0.916 | relative viability (Vandetanib + Foretinib; first compound 0.2 µM): 0.959 | relative viability (Vandetanib + Foretinib; first compound 0.6325 µM): 0.447 | relative viability (Vandetanib + Foretinib; first compound 2 µM): 0.196 | relative viability ([1]; first compound 0.005 µM): 0.606 | relative viability ([1]; first compound 0.01581 µM): 0.923 | relative viability ([1]; first compound 0.05 µM): 0.669 | relative viability ([1]; first compound 0.1581 µM): 1.22 | relative viability ([1]; first compound 0.5 µM): 0.729 | relative viability (Vandetanib + Pemetrexed; first compound 0.02 µM): 0.133 | relative viability (Vandetanib + Pemetrexed; first compound 0.06325 µM): 0.115 | relative viability (Vandetanib + Pemetrexed; first compound 0.2 µM): 0.123 | relative viability (Vandetanib + Pemetrexed; first compound 0.6325 µM): 0.179 | relative viability (Vandetanib + Pemetrexed; first compound 2 µM): 0.165

RERF-LC-KJ
relative viability (NVP-TAE684 + Decitabine; first compound 0.2 µM): 0.689 | relative viability (NVP-TAE684 + Decitabine; first compound 0.6325 µM): 0.574 | relative viability (NVP-TAE684 + Decitabine; first compound 2 µM): 0.3 | relative viability (Vandetanib + Foretinib; first compound 0.02 µM): 0.875 | relative viability (Vandetanib + Foretinib; first compound 0.06325 µM): 0.951 | relative viability (Vandetanib + Foretinib; first compound 0.2 µM): 0.904 | relative viability (Vandetanib + Foretinib; first compound 0.6325 µM): 0.882 | relative viability (Vandetanib + Foretinib; first compound 2 µM): 0.937 | relative viability ([1]; first compound 0.005 µM): 0.645 | relative viability ([1]; first compound 0.01581 µM): 0.564 | relative viability ([1]; first compound 0.05 µM): 0.511 | relative viability ([1]; first compound 0.1581 µM): 0.63 | relative viability ([1]; first compound 0.5 µM): 0.562 | relative viability (Vandetanib + Pemetrexed; first compound 0.02 µM): 0.46 | relative viability (Vandetanib + Pemetrexed; first compound 0.06325 µM): 0.459 | relative viability (Vandetanib + Pemetrexed; first compound 0.2 µM): 0.497 | relative viability (Vandetanib + Pemetrexed; first compound 0.6325 µM): 0.418 | relative viability (Vandetanib + Pemetrexed; first compound 2 µM): 0.46

SK-LU-1
relative viability (NVP-TAE684 + Decitabine; first compound 0.2 µM): 0.58 | relative viability (NVP-TAE684 + Decitabine; first compound 0.6325 µM): 0.658 | relative viability (NVP-TAE684 + Decitabine; first compound 2 µM): 0.602 | relative viability (Vandetanib + Foretinib; first compound 0.02 µM): 0.819 | relative viability (Vandetanib + Foretinib; first compound 0.06325 µM): 0.564 | relative viability (Vandetanib + Foretinib; first compound 0.2 µM): 0.197 | relative viability (Vandetanib + Foretinib; first compound 0.6325 µM): 0.798 | relative viability (Vandetanib + Foretinib; first compound 2 µM): 0.805 | relative viability ([1]; first compound 0.005 µM): 0.278 | relative viability ([1]; first compound 0.01581 µM): 0.374 | relative viability ([1]; first compound 0.05 µM): 0.349 | relative viability ([1]; first compound 0.1581 µM): 0.345 | relative viability ([1]; first compound 0.5 µM): 0.297 | relative viability (Vandetanib + Pemetrexed; first compound 0.02 µM): 0.971 | relative viability (Vandetanib + Pemetrexed; first compound 0.06325 µM): 0.787 | relative viability (Vandetanib + Pemetrexed; first compound 0.2 µM): 1.01 | relative viability (Vandetanib + Pemetrexed; first compound 0.6325 µM): 1.07 | relative viability (Vandetanib + Pemetrexed; first compound 2 µM): 1.04

SK-MES-1
relative viability (NVP-TAE684 + Decitabine; first compound 0.2 µM): 0.41 | relative viability (NVP-TAE684 + Decitabine; first compound 0.6325 µM): 0.335 | relative viability (NVP-TAE684 + Decitabine; first compound 2 µM): 0.305 | relative viability (Vandetanib + Foretinib; first compound 0.02 µM): 0.986 | relative viability (Vandetanib + Foretinib; first compound 0.06325 µM): 0.802 | relative viability (Vandetanib + Foretinib; first compound 0.2 µM): 1.01 | relative viability (Vandetanib + Foretinib; first compound 0.6325 µM): 0.83 | relative viability (Vandetanib + Foretinib; first compound 2 µM): 0.665 | relative viability ([1]; first compound 0.005 µM): 0.483 | relative viability ([1]; first compound 0.01581 µM): 0.659 | relative viability ([1]; first compound 0.05 µM): 0.48 | relative viability ([1]; first compound 0.1581 µM): 0.722 | relative viability ([1]; first compound 0.5 µM): 0.558 | relative viability (Vandetanib + Pemetrexed; first compound 0.02 µM): 1.01 | relative viability (Vandetanib + Pemetrexed; first compound 0.06325 µM): 0.882 | relative viability (Vandetanib + Pemetrexed; first compound 0.2 µM): 0.961 | relative viability (Vandetanib + Pemetrexed; first compound 0.6325 µM): 0.77 | relative viability (Vandetanib + Pemetrexed; first compound 2 µM): 0.93

SW 900
relative viability (NVP-TAE684 + Decitabine; first compound 0.2 µM): 0.433 | relative viability (NVP-TAE684 + Decitabine; first compound 0.6325 µM): 0.444 | relative viability (NVP-TAE684 + Decitabine; first compound 2 µM): 0.421 | relative viability (Vandetanib + Foretinib; first compound 0.02 µM): 0.927 | relative viability (Vandetanib + Foretinib; first compound 0.06325 µM): 0.779 | relative viability (Vandetanib + Foretinib; first compound 0.2 µM): 0.143 | relative viability (Vandetanib + Foretinib; first compound 0.6325 µM): 1 | relative viability (Vandetanib + Foretinib; first compound 2 µM): 0.917 | relative viability ([1]; first compound 0.005 µM): 0.48 | relative viability ([1]; first compound 0.01581 µM): 0.448 | relative viability ([1]; first compound 0.05 µM): 0.506 | relative viability ([1]; first compound 0.1581 µM): 0.763 | relative viability ([1]; first compound 0.5 µM): 0.424 | relative viability (Vandetanib + Pemetrexed; first compound 0.02 µM): 0.472 | relative viability (Vandetanib + Pemetrexed; first compound 0.06325 µM): 0.464 | relative viability (Vandetanib + Pemetrexed; first compound 0.6325 µM): 0.483 | relative viability (Vandetanib + Pemetrexed; first compound 2 µM): 0.464

SW 1573
relative viability (NVP-TAE684 + Decitabine; first compound 0.2 µM): 0.526 | relative viability (NVP-TAE684 + Decitabine; first compound 0.6325 µM): 0.497 | relative viability (NVP-TAE684 + Decitabine; first compound 2 µM): 0.104 | relative viability (Vandetanib + Foretinib; first compound 0.02 µM): 0.965 | relative viability (Vandetanib + Foretinib; first compound 0.06325 µM): 0.946 | relative viability (Vandetanib + Foretinib; first compound 0.2 µM): 0.81 | relative viability (Vandetanib + Foretinib; first compound 0.6325 µM): 0.91 | relative viability (Vandetanib + Foretinib; first compound 2 µM): 0.951 | relative viability ([1]; first compound 0.005 µM): 0.497 | relative viability ([1]; first compound 0.01581 µM): 0.54 | relative viability ([1]; first compound 0.1581 µM): 0.923 | relative viability ([1]; first compound 0.5 µM): 0.557 | relative viability (Vandetanib + Pemetrexed; first compound 0.02 µM): 0.899 | relative viability (Vandetanib + Pemetrexed; first compound 0.06325 µM): 0.841 | relative viability (Vandetanib + Pemetrexed; first compound 0.6325 µM): 0.909 | relative viability (Vandetanib + Pemetrexed; first compound 2 µM): 0.887
